Results on 8 cell lines are retold here after the supplement of paper PMC10307832.

Assay in all cases: relative viability (nuclei count vs DMSO), 5 days (fraction); higher = more cells survive
Compound in experiment [1]: C1CC2=C(C1)C=C(C=C2)OC3=NC(=C4C(=N3)N(C=N4)CC5=CC=C(C=C5)C6=CC=CC=C6)N[C@@H](CC7=CC=CC=C7)CO [QS11] + COc1cccc2cc(-c3nc([C@H]4CC[C@H](C(=O)O)CC4)n4ncnc(N)c34)[nH]c12 [OSI-027] (partner 0.5 µM)
In outline: (§1)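 Cells from lung cancer lines were seeded into 1536-well plates and, one day later, dosed by pin tool. Treatments were either a single drug or a fixed dose of an anchor drug with five library-drug doses (not always all listed) in √10 steps. After 5 days, nuclei were stained in a one-step fixation (final 0.05% Triton X-100, 1% formaldehyde, 1 ug/ml Hoechst) and counted on 4× images, and relative viability is the treated-to-vehicle nuclei ratio, as the median of duplicate plates.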

Compound in experiment [2]: C1CC2=C(C1)C=C(C=C2)OC3=NC(=C4C(=N3)N(C=N4)CC5=CC=C(C=C5)C6=CC=CC=C6)N[C@@H](CC7=CC=CC=C7)CO [QS11] + N=C(N)NC(=N)NCCc1ccccc1 [Phenformin] (partner 250 µM)
In a few lines: as §1

Compound in experiment [3]: CC1=C(C=C(C=C1)NC(=O)C2=CC(=CC=C2)C(C)(C)C#N)NC3=CC4=C(C=C3)N=CN(C4=O)C [AZ628] + CC(C)C[C@H](NC(=O)[C@H](Cc1ccccc1)NC(=O)c1cnccn1)B(O)O [Bortezomib] (partner 0.002 µM)
In outline:
as §1

Compound in experiment [4]: C[As](C)SC[C@H](NC(=O)CC[C@H](N)C(=O)O)C(=O)NCC(=O)O [Darinaparsin] + CC(C)C[C@H](NC(=O)[C@H](Cc1ccccc1)NC(=O)c1cnccn1)B(O)O [Bortezomib] (partner 0.002 µM)
In a few lines: as §1

For H3255, the relative viability in experiment [1] (first compound 0.08 µM) came out at 0.593; in experiment [1] (first compound 0.253 µM) it was 0.675; in experiment [1] (first compound 2.53 µM), 0.558; in experiment [1] (first compound 8 µM), 0.608; in experiment [2] (first compound 0.08 µM) it was 0.341; in experiment [2] (first compound 0.253 µM), 0.351. In addition, the relative viability in experiment [2] (first compound 2.53 µM) amounted to 0.418; in experiment [2] (first compound 8 µM) it was 0.363; in experiment [3] (first compound 0.08 µM), 0.837; in experiment [3] (first compound 0.253 µM), 0.621; in experiment [3] (first compound 0.8 µM), 0.811; in experiment [3] (first compound 2.53 µM), 0.81. Also, the relative viability stood at 0.66 in experiment [3] (first compound 8 µM); 0.794 in experiment [4] (first compound 0.08 µM); 0.835 in experiment [4] (first compound 0.8 µM); 0.79 in experiment [4] (first compound 2.53 µM); 0.945 in experiment [4] (first compound 8 µM).
In the case of LOU-NH91, the relative viability in experiment [1] (first compound 0.08 µM) turned out to be 0.678; in experiment [1] (first compound 0.253 µM) it was 0.722; in experiment [1] (first compound 0.8 µM), 0.693; in experiment [1] (first compound 2.53 µM), 0.728; in experiment [1] (first compound 8 µM) it was 0.71; in experiment [2] (first compound 0.08 µM), 0.685. The relative viability in experiment [2] (first compound 0.253 µM) came to 0.62; in experiment [2] (first compound 0.8 µM), 0.657; in experiment [2] (first compound 2.53 µM) it was 0.67; in experiment [2] (first compound 8 µM) it was 0.663; in experiment [3] (first compound 0.08 µM), 0.481; in experiment [3] (first compound 0.253 µM), 0.478. Moreover, the relative viability was found to be 0.485 in experiment [3] (first compound 0.8 µM); 0.466 in experiment [3] (first compound 2.53 µM); 0.453 in experiment [3] (first compound 8 µM); 0.495 in experiment [4] (first compound 0.08 µM); 0.56 in experiment [4] (first compound 0.8 µM); 0.537 in experiment [4] (first compound 2.53 µM). Further, the relative viability in experiment [4] (first compound 8 µM) amounted to 0.519.
As for NCI-H2126, the relative viability was found to be 0.685 in experiment [1] (first compound 0.08 µM); 0.697 in experiment [1] (first compound 0.253 µM); 0.727 in experiment [1] (first compound 0.8 µM); 0.653 in experiment [1] (first compound 2.53 µM); 0.646 in experiment [1] (first compound 8 µM); 0.542 in experiment [2] (first compound 0.08 µM). Further, the relative viability in experiment [2] (first compound 0.253 µM) came to 0.505; in experiment [2] (first compound 0.8 µM) it was 0.552; in experiment [2] (first compound 2.53 µM), 0.561; in experiment [2] (first compound 8 µM) it was 0.541; in experiment [3] (first compound 0.08 µM), 1.16; in experiment [3] (first compound 0.253 µM), 1. Also, the relative viability was determined as 1.13 in experiment [3] (first compound 0.8 µM); 1.17 in experiment [3] (first compound 2.53 µM); 1.18 in experiment [3] (first compound 8 µM); 1.16 in experiment [4] (first compound 0.08 µM); 1.2 in experiment [4] (first compound 0.8 µM); 0.892 in experiment [4] (first compound 2.53 µM). In experiment [4] (first compound 8 µM), the relative viability came to 1.19.
For PC-14, the relative viability in experiment [1] (first compound 0.08 µM) is 0.731; in experiment [1] (first compound 0.253 µM), 0.98; in experiment [1] (first compound 0.8 µM), 0.809; in experiment [1] (first compound 2.53 µM), 0.807; in experiment [1] (first compound 8 µM) it was 0.695; in experiment [2] (first compound 0.08 µM), 0.384. For the same cell line, the relative viability was determined as 0.49 in experiment [2] (first compound 0.253 µM); 0.574 in experiment [2] (first compound 0.8 µM); 0.683 in experiment [2] (first compound 2.53 µM); 0.737 in experiment [2] (first compound 8 µM); 0.815 in experiment [3] (first compound 0.08 µM); 0.746 in experiment [3] (first compound 0.253 µM). The relative viability in experiment [3] (first compound 0.8 µM) was 0.942; in experiment [3] (first compound 2.53 µM), 1.08; in experiment [3] (first compound 8 µM), 0.604; in experiment [4] (first compound 0.08 µM) it was 0.925; in experiment [4] (first compound 0.8 µM), 0.77; in experiment [4] (first compound 2.53 µM) it was 0.753. In addition, the relative viability in experiment [4] (first compound 8 µM) turned out to be 1.11.
EMC-BAC-2: the relative viability in experiment [1] (first compound 0.08 µM) stood at 0.391; in experiment [1] (first compound 0.253 µM), 0.397; in experiment [1] (first compound 0.8 µM) it was 0.452; in experiment [1] (first compound 2.53 µM), 0.373; in experiment [1] (first compound 8 µM), 0.337; in experiment [2] (first compound 0.08 µM) it was 0.519. In addition, the relative viability in experiment [2] (first compound 0.253 µM) was found to be 0.579; in experiment [2] (first compound 0.8 µM), 0.53; in experiment [2] (first compound 2.53 µM), 0.463; in experiment [2] (first compound 8 µM), 0.44; in experiment [3] (first compound 0.08 µM), 1.11; in experiment [3] (first compound 0.253 µM), 0.963. The relative viability was found to be 1 in experiment [3] (first compound 0.8 µM); 0.991 in experiment [3] (first compound 2.53 µM); 1.08 in experiment [3] (first compound 8 µM); 1.2 in experiment [4] (first compound 0.08 µM); 0.973 in experiment [4] (first compound 0.8 µM); 0.997 in experiment [4] (first compound 2.53 µM). In experiment [4] (first compound 8 µM), the relative viability amounted to 1.2.
On to HCC-78, for which the relative viability in experiment [1] (first compound 0.08 µM) was found to be 0.405; in experiment [1] (first compound 0.253 µM), 0.351; in experiment [1] (first compound 0.8 µM), 0.35; in experiment [1] (first compound 2.53 µM), 0.435; in experiment [1] (first compound 8 µM) it was 0.478; in experiment [2] (first compound 0.08 µM), 0.788. For the same cell line, the relative viability is 0.722 in experiment [2] (first compound 0.253 µM); 0.725 in experiment [2] (first compound 0.8 µM); 0.871 in experiment [2] (first compound 2.53 µM); 0.798 in experiment [2] (first compound 8 µM); 0.675 in experiment [3] (first compound 0.08 µM); 0.457 in experiment [3] (first compound 0.253 µM). In addition, the relative viability in experiment [3] (first compound 0.8 µM) was 0.586; in experiment [3] (first compound 2.53 µM), 0.487; in experiment [3] (first compound 8 µM), 0.623; in experiment [4] (first compound 0.08 µM), 0.464; in experiment [4] (first compound 0.8 µM), 0.59; in experiment [4] (first compound 2.53 µM), 0.482. Besides, the relative viability in experiment [4] (first compound 8 µM) came out at 0.55.
For LK-2, the relative viability in experiment [1] (first compound 0.08 µM) was 0.181; in experiment [1] (first compound 0.253 µM), 0.238; in experiment [1] (first compound 0.8 µM), 0.188; in experiment [1] (first compound 2.53 µM), 0.212; in experiment [1] (first compound 8 µM) it was 0.22; in experiment [2] (first compound 0.08 µM), 0.243. Further, the relative viability amounted to 0.76 in experiment [2] (first compound 0.253 µM), 0.524 in experiment [2] (first compound 0.8 µM), 0.426 in experiment [2] (first compound 2.53 µM) and 0.411 in experiment [2] (first compound 8 µM).
On to NCI-H358, for which the relative viability in experiment [1] (first compound 0.08 µM) amounted to 0.774; in experiment [1] (first compound 0.253 µM), 0.854; in experiment [1] (first compound 0.8 µM) it was 0.888; in experiment [1] (first compound 2.53 µM), 0.849; in experiment [1] (first compound 8 µM), 1.01; in experiment [2] (first compound 0.08 µM) it was 0.297. Besides, the relative viability is 0.378 in experiment [2] (first compound 0.253 µM), 0.412 in experiment [2] (first compound 0.8 µM), 0.5 in experiment [2] (first compound 2.53 µM) and 0.507 in experiment [2] (first compound 8 µM).
